These results are taken from US10512624B2, “Long-chain amphipathic dicarboxylic acids for treatment of diabetes type-1” (Syndromex Ltd., priority 2016, dated 2019).

In one assay the test system is STZ diabetic rats. As to the kind of experiment: Anti-diabetic efficacy in streptozotocin (STZ) diabetic rats (FBG, IPGTT, IPITT, fluid balance, insulin/glucagon content). In kind it is in vivo, rat. As to conditions: sub-therapeutic insulin NPH 3 u/kg b.i.d alone, STZ diabetic rats. As for the experimental part: Male Sprague-Dawley (SD) rats weighing 250-275 gr were fed ad libitum (Harlan Teklad 2018), had free access to water, and were kept on a 12:12 h light:dark cycle. Experimental type 1 diabetes (T1D) was induced in overnight fasted rats by a single intra-peritoneal injection of streptozotocin (STZ, 60 mg/kg body weight, Sigma Aldrich) freshly prepared in 0.1 M of cold citrate buffer (pH 4.5), followed by oral 10% glucose solution for the next 24 hours to overcome STZ-induced acute hypoglycemia. STZ diabetic rats (defined as having a fasting blood glucose (FBG) level higher than 300 mg/dl) were selected for further studies.
SHAM (control) rats were injected with 0.1 M of cold citrate buffer (pH 4.5). STZ diabetic or SHAM rats were dosed twice daily by gavage (orally) with 1% CMC (Sigma Aldrich C5678), or with HOOC—C(CH3)2—(CH2)12—C(CH3)2—COOH (2,2,15,15-tetramethylhexadecane-1,16-dioic acid) also termed herein “MEDICA16αα”, “Medica16αα” or M16αα(15 mg/kg body weight) suspended in 1% CMC, or injected intraperitoneal (i.p.) with Neutral Protamine Hagedorn (NPH) insulin (3 u/kg body weight b.i.d), as indicated.
(§1) Administering a combination of Medica16αα and insulin was performed by treating STZ diabetic rats (FBG >300 mg/dl) with oral MEDICA16αα(15 mg/kg b.i.d) for five consecutive days, then MEDICA16αα-responsive rats were further treated with MEDICA16αα(15 mg/kg b.i.d) for 10 additional consecutive days (“STZ/MEDICA Res”), and MEDICA16αα non-responsive rats (FBG >250 mg/dl) were further treated for 10 additional consecutive days with either insulin Neutral Protamine Hagedorn (NPH) (3 u/kg b.i.d subcutaneously) (“STZ/NPH”), or with insulin NPH (3 u/kg b.i.d subcutaneously in combination with oral MEDICA16αα(15 mg/kg b.i.d) (“STZ/MEDICA NPH”).
Tail vein FBG was verified daily by a glucometer (Glucometer®, Accu-Check® Performa, Roche Diagnostics). Urine secretion, food and water consumption were measured in standard metabolic cages (Tecniplast™ Metabolic Cage Systems for Rodents) for 48 hour periods. Samples were collected and recorded every 12 hour.
Overnight fasted rats were injected i.p (1 gr glucose/kg bw) with 20% dextrose solution (Teva Medical). Tail vein blood was sampled on 0, 30, 60, 90 and 120 minutes following glucose injection.
Fasted rats (5 hours fast) were injected i.p (2 u/kg bw) with HumulinR insulin (Eli Lilly). Tail blood glucose levels were measured by glucometer at 0, 15, 30, 60, and 120 min following insulin injection.
(§2) Pancreas and plasma insulin and glucagon content were determined by insulin (Millipore, Cat #RI-13K) and glucagon (Millipore, Cat # GL-32K) radioimmunoassay (RIA) kits. cAMP levels were measured by cAMP kit (Arbor Assays, DetectX Cat # K019-H1).

In the next assay the test system is hepatic gluconeogenesis. Briefly: Suppression of hepatic gluconeogenesis in STZ diabetic rats (RT-PCR, Western blot, cAMP kit). Type of assay: in vivo, rat. As for the experimental part: as §1
Sampled frozen tissue was homogenized (Polytron) in lysis buffer (50 mM Tris HCl, pH 8.0, 1% Triton X-100, 1 mM EGTA, 1 mM EDTA, 150 mM NaCl, 5 mM NaPPi, 50 mM NaF, 1 mM PMSF, 1 mM Na Vanadate, 40 nM bpVfan and protease inhibitor cocktail (Sigma)), and centrifuged for 15 min at 12,500 rpm.
Protein lysates were prepared in sodium dodecyl sulfate (SDS) sample buffer (62 mM Tris (pH 6.8), 2.3% SDS, […] mercaptoethanol, 10% glycerol), and were subjected to SDS-PAGE, electro-transferred onto cellulose nitrate membranes (Schleicher & Schuell) and probed with the indicated first antibody, followed by HRP-labeled second antibody. Protein concentration was determined by BCA (Thermo Scientific). Bands were detected by ECL, and the intensity of individual bands was determined by densitometry using ImageJ 1.48 v software.
Sampled frozen tissue was homogenized (Polytron) in lysis buffer (50 mM Hepes (pH 7.4), 150 mM NaCl, 10% Glycerol, 1.5 mM MgCl2, 1 mM EGTA, 1% Triton, 50 mM β-glycerolphosphate, 25 mM NaF, 1 mM Na-vanadate, 40 nM bpVphen, protease inhibitor mix (Sigma) and 17.5 mg/ml octyl beta-D-glucopyranoside (Sigma)). Lysates were kept on ice for 30 min and centrifuged at 12000 rpm for 15 min. Lysates ([…]) were incubated for 4 h with protein A/G beads (Santa Cruz Biotechnology) pre-loaded with the indicated antibody. The immune-precipitate was rinsed 3 times with washing buffer (20 mM Hepes (pH 7.4), 150 mM NaCl, 0.1% Tx-100, 10% glycerol), re-suspended in SDS sample buffer, boiled for 8 min, and analyzed by SDS-PAGE.
Total RNA was prepared using the TRI reagent (Sigma Aldrich). First-strand cDNA used as template was synthesized by reverse transcription using oligo(dT) as primer and the Reverse-iTMAX First Strand Kit (ABgene, Epson). Glucose-6-phosphatase (G6Pase) and phosphoenolpyruvate carboxykinase (PEPCK) transcripts normalized by tubulin were quantified by real-time PCR (Rotor Gene RG-3000A) using SYBER green MasterMix (Absolute Syber Green ROX Mix, ABgene) and the following primers: […]
as §2
On the technique in general: A western blot detects proteins with antibodies after separation by electrophoresis.

For assay [1], the system named is STZ diabetic rat model, NOD mouse model. The following applies: cited from earlier work.
For the next assay, the system named is T1D patients. As to conditions: insulin-treated (>1 u/kg body weight/day) T1D patients, meta-analysis (ref 12); cited from earlier work.
Assay [2] relates to adipose adenylate cyclase. The following applies: cited from earlier work.

Consider “insulin NPH: Neutral Protamine Hagedorn (NPH) insulin, intermediate-acting insulin, used at sub-therapeutic dose 3 u/kg b.i.d”, for which the “controlling glycemia (FBG, IPGTT, IPITT, fluid balance)” value with STZ diabetic rats was “without any effect”. Further, in the assay on hepatic gluconeogenesis, the “hepatic phospho-CREB(Ser179)” value was “ineffective” and the “hepatic phospho-CRTC2(Ser171)” value was “not”. Besides, the “hepatic glucose-6-phosphatase and PEPCK transcripts” value with hepatic gluconeogenesis (compared with STZ/CMC and SHAM/CMC) is “essentially unaffected”.
As to `CN(C)C(=N)N=C(N)N` [metformin], the “normalizing STZ-induced diabetes, or preventing or delaying autoimmune T1D in NOD mouse” value in assay [1] was “ineffective or only marginally effective”. In addition, in the assay with T1D patients, the “reduction in daily insulin usage” value is 1.4 u/d.
Turning to `CC(C)(CCCCCCCCCCC(C)(C)CC(=O)O)CC(=O)O` [MEDICA16ββ, 3,3,14,14-tetramethylhexadecane-1,16-dioic acid], the adipose adenylate cyclase result in assay [2] was “inhibit”.
